US20050095606A1, “Partially double-stranded nucleic acids, methods of making, and use thereof” (priority 2001, published 2005)

Assays:
Type in all cases: cell-based
Settings in all cases: 6 hours
[1] = tested on: C-myc; experiment: Flow-Thru Chip gene expression analysis after multiplex RT-PCR, MCF-7 cells
Description: (§1) MCF-7 cells are estrogen responsive breast adenocarcinoma cells that have been used previously as a model system for evaluation of breast cancer drugs. Initial studies have examined the effect of an anti-estrogen, tamoxifen, on the estradiol response of MCF-7 cells. Estradiol stimulates cell proliferation through the G1 phase in synchronized cell growth studies. Tamoxifen treatment of cells inhibits the induction of several genes that occur upon estradiol treatment by blocking estrogen receptor cofactors required for transcription. The Flow-Thru Chip™has been used as an analysis platform for a set of genes reported in the literature as differentially regulated in the MCF-7 system under estradiol and tamoxifen treatment. TAQMAN® PCR was performed to measure the changes in expression levels for each of the monitored genes across the treatments.
(§2) The experimental protocols for estradiol and tamoxifen treatment have been described in detail elsewhere (Wosikowski et al., Int. J. Cancer 53:290-297 (1993)). In this study MCF-7 (ATTC, Manassas, Va.) cells were maintained in MEM alpha medium supplemented with 10% heat-inactivated fetal bovine serum, Penicillin-Streptomycin and 10 μg/ml bovine insulin (complete medium) (Life Technologies, Gaithersburg, Md.). […] The purity and integrity of the total RNA was assessed by the 260/280 absorbance and the 28s/18s RNA ratios.
(§3) Analysis of genes under test by the Flow-Thru Chip™ required amplification from the total RNA. […] The appropriate number of cycles for each grouping of target nucleic acids was determined empirically to assure that all targets in the group were in the linear dynamic range of the chip and had not reached primer limitation in the PCR amplification. […]
(§4) The ability to multiplex target nucleic acids under study was confirmed by TAQMAN®, analysis of the singleplex and multiplex amplifications. […] Changes in expression level between samples were determined by comparing the brightness of gene-spots measured for each target nucleic acid relative to a reference target nucleic acid, β-actin. […]

[2] = tested on: C-myc; experiment: TAQMAN PCR gene expression analysis, MCF-7 cells
Description: as §1, with “The Flow-Thru Chip™has been used as an analysis platform for a set of genes reported in the literature as differentially regulated in the MCF-7 system under estradiol and tamoxifen treatment.” left out
The experimental protocols for estradiol and tamoxifen treatment have been described in detail elsewhere (Wosikowski et al., Int. J. Cancer 53:290-297 (1993)). […] The purity and integrity of the total RNA was assessed by the 260/280 absorbance and the 28s/18s RNA ratios.
as §4

[3] = tested on: 12 target nucleic acids in MCF-7 cells; experiment: Change in expression level of 12 target nucleic acids across cell treatments (Flow-Thru Chip and TAQMAN)
Description: as §1, §2, §3, §4

C[C@]12CC[C@@H]3c4ccc(O)cc4CC[C@H]3[C@@H]1CC[C@@H]2O [estradiol, 17-beta-estradiol]
C-myc fold up-regulation ([1]; 10 nM 17-beta-estradiol, relative to vehicle control (=1.0), reference β-actin, Flow-Thru Chip): 23±4 fold
C-myc fold up-regulation ([2]; 10 nM 17-beta-estradiol, relative to vehicle control (=1.0), reference β-actin, TAQMAN): 27±6 fold
effect on expression of the target nucleic acids ([3]; 10 nM 17-beta-estradiol): induces expression

CC/C(=C(\c1ccccc1)c1ccc(OCCN(C)C)cc1)c1ccccc1 [tamoxifen]
influence on C-myc expression ([1]; 1 μM tamoxifen alone, method not stated): no influence
C-myc fold increase ([1]; 1 μM tamoxifen in conjunction with 10 nM 17-beta-estradiol, Flow-Thru Chip (same by both methods)): roughly 8 fold
C-myc fold increase ([2]; 1 μM tamoxifen in conjunction with 10 nM 17-beta-estradiol, TAQMAN (same by both methods)): roughly 8 fold
effect on estradiol induction of the set of target nucleic acids ([3]; 1 μM tamoxifen added to 10 nM 17-beta-estradiol): suppresses the induction
influence on expression of any of the target nucleic acids ([3]; 1 μM tamoxifen alone): little influence
